The source of these data is paper PMC7249419, “Probing contacts of inhibitor locked in transition states in the catalytic triad of DENV2 type serine protease and its mutants by 1H, 19F and 15 N NMR spectroscopy” (BMC Molecular and Cell Biology, 2020).

For experiment [1], the target named is T1, DENV2 NS2B:NS3pro (Dengue virus type 2, UniProt P29990).
T1 construct: DENV2 NS3pro (1–185; amino acids 1476–1660 of the polyprotein); NS2B (containing amino acids 1394–1440 of the Dengue 2 polyprotein); His tag; made in house; host or cells: Escherichia coli BL21Star (DE3)
The experiment can be described thus: Biochemical protease activity assay, fluorogenic AMC substrate. The conditions noted are these: 50 mM HEPES pH 7.4, 150 mM NaCl, 10% ethylene glycol, 0.05% BSA, 0.0016% Brij-58; 80 nM enzyme; 20 μM Bz-nle-Lys-Arg-Arg-AMC; fluorescence 390/460 nm every 30 s for 30 min; three parameter IC50 fit. Also on record: species or system serotype II Dengue virus (DENV2). On the procedure:
Activity assays were carried out on a 96-well plate (white Cliniplate, Thermo Fisher Scientific Oy, Vantaa, Finland) in 50 mM HEPES, pH 7.4, 150 mM NaCl, 10% ethylene glycol, 0.05% BSA, 0.0016% Brij-58 with 80 nM enzyme using 20 μM Bz-nle-Lys-Arg-Arg-AMC (Bachem, Bubendorf, Switzerland) as substrate. Reagents were from Sigma (St. Louis, MO, USA) unless otherwise stated.
5 μl of 200 μM substrate in buffer and 2.5 μl of compound in DMSO or DMSO control were added to the plate. 42.5 μl of […] enzyme in buffer was added to start the reaction. Fluorescence was read every 30 s for 30 min at 390 nm excitation and 460 nm emission in a Fluorskan Ascent plate reader (Thermo Fisher Scientific Oy, Vantaa, Finland). Rates were fitted in the Ascent software and exported as Excel files. The rates were imported into GraphPad Prism (GraphPad Software Inc., La Jolla, CA, USA) and fitted to the standard three parameter IC50 equation.

Experiment [2] has as its target T1, DENV2 NS2B:NS3pro. Nature of the experiment: 19F NMR monitoring of inhibitor binding to wild-type NS2B:NS3pro. The conditions noted are these: 298 K. Also on record: species or system serotype II Dengue virus (DENV2). The source says: The subside part of peptide types of inhibitors either improves or prevents correct binding with the enzyme in the most favourable way. One way to probe stereo-selectivity in enzymes is to study an inhibitor with the wrong stereochemistry around the carbon, Cα, of the P1 (Arg) (for abbreviation see Table 1). The key question is: could both isomers bind to NS2B:NS3pro complex? If yes, is there any difference in affinity between them. To challenge these questions two separated diastereomers of Ph-Bz-Lys-Lys-Arg-CF3-ketone (III) (Table 1) with low affinity were used to observe the binding. The isolated diastereomers were kept in solution with and without the NS2B/NS3 complex for two months with measuring at several points. For the first separated isomer (IIIa), only one ^19F resonance is observed at − 82.83 ppm in the unbound state (Fig. 1a). […]
(§1) NMR experiments were acquired on Bruker Avance III spectrometers operating at 14.1 and 16.4 T at a temperature of 298 K. 2D ^1H-^15N TROSY -transverse relaxation optimized spectroscopy (TROSY) was used. ^19F experiments were acquired on a Bruker Avance III 16.4 T equipped with a QCIF CryoProbe, and internally referenced to the trifluoromethyl acetate counter ion (− 76.55 ppm). […] Protein detected experiments with ligand bound used a chemical shift perturbation (CSP) analysis was performed manually in CcpNmr Analysis 2.2.2 [60]. […]

Experiment [3] has as its system NS2B:NS3pro (S135A). Nature of the experiment: 19F and 1H-15N TROSY NMR binding to S135A mutant. The settings on record: 1H-15N TROSY and 19F NMR. Further details: species or system serotype II Dengue virus (DENV2).
Excerpt: (§2) Reagents were from Sigma (St. Louis, MO, USA) unless otherwise stated. DENV2 NS3pro (1–185; amino acids 1476–1660 of the polyprotein) and NS2B (containing amino acids 1394–1440 of the Dengue 2 polyprotein) constructs were generated as described. H51N and S135A mutations of active site residues were introduced using the QuikChange Lightning kit (Agilent); a double H51N/S135A mutant was generated sequentially. All sequences were confirmed by Sanger sequencing. NS2B and NS3pro were expressed separately in Escherichia coli expression strain BL21Star (DE3) (Life Technologies) as described. Proteins were expressed in Terrific Broth medium (MP Biomedicals) for unlabelled protein or in different isotopic labelling combinations in ^1/2H, ^15N, ^12/13C-labelled M9 medium for labelled protein [54]. […]
as §1

Experiment [4] deals with T1, DENV2 NS2B:NS3pro. The conditions noted are these: earlier NMR study; cited from earlier work. The source says:
The unusual large low-filed shift of N^δ1H (19.93 ppm) of H51 combined with a N-H splitting of only 52 Hz clearly indicated the ...

Experiment [5] has as its target T1, DENV2 NS2B:NS3pro. The experiment can be described thus: 19F NMR solvent isotope shift (H2O vs D2O), water accessibility of NS2B:NS3pro complex. Also on record: species or system serotype II Dengue virus (DENV2). The settings on record: inhibitor bound to DENV2 NS2B:NS3pro. On the procedure:
The accessibility of water in the binding site of the complex with bound inhibitor was tested by studying the ^19F spectra of the complexes NS2B:NS3pro (II) in two different solvents: H2O and D2O (Fig. S2). […] This CSP was scaled versus the signals of the same group of the unbound ligand, ca 48 Hz (Fig. S2c). The conclusion is that ^19F nuclei of the benzene ring of the bound inhibitor are partly exposed to the solvent even in the bound state.
The NS2B:NS3pro complex was concentrated in disposable centrifugal concentrators (e.g. Amicon Ultra centrifugal filter units) with a molecular weight cut-off of 10 kDa. The complex was stable during concentration and no leakage of NS2B occurred. Buffer was exchanged using gravity flow desalting columns (GE Healthcare). The NMR buffer contained 20 mM deuterated MES, 100 mM NaCl, 5 mM CaCl2, 0.02% NaN3, at pH 6.5. […]
as §1

For experiment [6], the target named is T1, DENV2 NS2B:NS3pro. Nature of the experiment: 1H-15N TROSY chemical shifts/CSP, oxyanion hole and H51 of NS2B:NS3pro complexes. In kind it is binding, serotype II Dengue virus (DENV2). As to the method: The NS2B:NS3pro complex was concentrated in disposable centrifugal concentrators (e.g. Amicon Ultra centrifugal filter units) with a molecular weight cut-off of 10 kDa. The complex was stable during concentration and no leakage of NS2B occurred. Buffer was exchanged using gravity flow desalting columns (GE Healthcare). The NMR buffer contained 20 mM deuterated MES, 100 mM NaCl, 5 mM CaCl2, 0.02% NaN3, at pH 6.5. The buffer-exchanged protein was concentrated to at least 0.3 mM. To obtain spectra in D2O buffer protein complex with inhibitor was lyophilized and dissolved adding only D2O water.
(§3) NMR experiments were acquired on Bruker Avance III spectrometers operating at 14.1 and 16.4 T at a temperature of 298 K. 2D ^1H-^15N TROSY -transverse relaxation optimized spectroscopy (TROSY) was used. ^19F experiments were acquired on a Bruker Avance III 16.4 T equipped with a QCIF CryoProbe, and internally referenced to the trifluoromethyl acetate counter ion (− 76.55 ppm). For solvent isotope shift measurements the buffer was exchanged from 90% H2O to 90% D2O using centrifugation filters by following dilution of the sample till starting concentration. The consistency of the procedure has been tested through comparison of the ^1H-^15N spectra before and after buffer exchange back to starting condition. There was no major structural perturbations resulted from exchange into deuterated buffer conditions. Protein detected experiments with ligand bound used a chemical shift perturbation (CSP) analysis was performed manually in CcpNmr Analysis 2.2.2 [60]. CSP was defined as the distance between two cross peaks in Hz, obtained as the square root of the sum of quadratic using DANGLE [61].
Backbone resonance assignment of the NS2B:NS3pro with tetra peptide boronic acid (I) was performed as described previously by us with depositing to the BioMagResBank with accession code 26996 [10, 62], and compared with published earlier for the same inhibitor complex but with the linked construct Dengue I NS2B:NS3pro (BioMagResBank with accession code 19305). Backbone resonance assignment have been done in the same manner for the complex NS2B:NS3pro with the tetra peptide tfk ligand (II) as well and will be published elsewhere. Partial assignments of the ^1H and ^15N resonances presented in this publication of the apo form NS2B:NS3pro and its mutants in complex with inhibitors observed to the uncrowded area of the ^1H-^15N spectra are made by the extrapolation of corresponding cross peaks to the closest one known amino acids using CCPN program tool. […]

Experiment [7] addresses T1, DENV2 NS2B:NS3pro. The experiment can be described thus: Low field 1D 1H NMR of NS2B:NS3pro complexes (LBHB, H51-D75). In kind it is binding, serotype II Dengue virus (DENV2). On the procedure:
The NS2B:NS3pro complex was concentrated in disposable centrifugal concentrators (e.g. Amicon Ultra centrifugal filter units) with a molecular weight cut-off of 10 kDa. The complex was stable during concentration and no leakage of NS2B occurred. Buffer was exchanged using gravity flow desalting columns (GE Healthcare). […] The buffer-exchanged protein was concentrated to at least 0.3 mM. To obtain spectra in D2O buffer protein complex with inhibitor was lyophilized and dissolved adding only D2O water.
as §3

For experiment [8], the system named is NS2B:NS3pro (H51N). The experiment can be described thus: 19F and 1H-15N TROSY NMR binding to H51N mutant. Also on record: species or system serotype II Dengue virus (DENV2). The conditions noted are these: 1H-15N TROSY and 19F NMR, same protein:inhibitor ratio as wild type.
Excerpt: as §2, §1

Usually IC50 stands for the concentration that inhibits the measured activity by half. Low values mean higher potency, high ones lower potency.

Several values for one entry are separate records, joined by “and”; a condition that tells them apart may be missing. Equal entries are not always repeated. Entries after “also recorded” stand apart in the source; their conditions may differ. Non-standard residues stand in square brackets, D forms with d. Residues, ends and D or L forms follow the SMILES beside them. ξ: configuration not given here. *: point of attachment. Benzoyl(2,6-F2) = O=C(c1c(F)cccc1F)*; Benzoyl(4-F) = O=C(c1ccc(F)cc1)*; ξR = N=C(N)NCCCC(N)C(=O)O; Nle = CCCC[C@H](N)C(=O)O; Bz = O=C(c1ccccc1)*; CF3 = FC(F)(F)*

Take `CCCC[C@H](NC(=O)c1ccc(F)cc1)C(=O)N[C@@H](CCCCN)C(=O)N[C@@H](CCCNC(=N)N)C(=O)NC(CCCNC(=N)N)C(=O)C(F)(F)F` (stereo partly drawn) [V, N-((9S,12S,15S)-1-amino-12-(4-aminobutyl)-9-(3-guanidinopropyl)-1-imino-8,11,14-trioxo-6-(2,2,2-trifluoroacetyl)-2,7,10,13-tetraazanonadecan-15-yl)-4-fluorobenzamide] ({Benzoyl(4-F)}-[Nle]KR[ξR]-CF3): the IC50 in experiment [1] worked out at 24 µM.
On the same count and under the same terms, the result for `CCCC[C@H](NC(=O)c1c(F)cccc1F)C(=O)N[C@@H](CCCCN)C(=O)N[C@@H](CCCNC(=N)N)C(=O)NC(CCCNC(=N)N)C(=O)C(F)(F)F` (stereo partly drawn) [II, N-((9S,12S,15S)-1-amino-12-(4-aminobutyl)-9-(3-guanidinopropyl)-1-imino-8,11,14-trioxo-6-(2,2,2-trifluoroacetyl)-2,7,10,13-tetraazanonadecan-15-yl)-2,6-difluorobenzamide] ({Benzoyl(2,6-F2)}-[Nle]KR[ξR]-CF3) reads 19 µM.
Turning to `CCCC[C@H](NC(=O)c1ccccc1)C(=O)N[C@@H](CCCCN)C(=O)N[C@@H](CCCNC(=N)N)C(=O)N[C@@H](CCCNC(=N)N)B(O)O` [I, ((3S,6S,9S,12R)-17-amino-6-(4-aminobutyl)-3-butyl-9-(3-guanidinopropyl)-17-imino-1,4,7,10-tetraoxo-1-phenyl-2,5,8,11,16-pentaazaheptadecan-12-yl)boronic acid], in experiment [2], the “Binding to NS2B:NS3pro / affinity in words (NMR)” value is recorded as “the former has higher affinity than the latter”. Also, in experiment [3], the “Binding to S135A mutant” value is listed as “do not interact with the S135A mutant; also recorded: no binding was observed; also recorded: complete absence of any binding”. In addition, in experiment [4], the “N-H splitting of Nδ1H of H51” value is recorded as 52 Hz and the “NδH shift of H51 in complex” value is reported as 19.93 ppm. For the same compound, the “Bulk water access to active site” value in experiment [5] was “bulk water is excluded from the active site”. The “H51-HN 1H chemical shift in complex” value in experiment [6] (apo 10.56 and 10.18 ppm) is reported as 10.03 ppm. For the same compound, the “H51-HN 15N chemical shift in complex” value in experiment [6] (apo 114.44 and 114.37 ppm) is recorded as 113.50 ppm. Also, the “Amide CSP of the oxyanion hole” value in experiment [6] (complex vs apo form) is roughly 0.3 ppm. Further, the “Interaction with oxyanion hole” value in experiment [6] (complex with NS2B:NS3pro) was “we did not observe interaction of G133 in the oxyanion hole; also recorded: no interaction with the oxyanion hole”. In experiment [7] (commonly 87-95 Hz), the “Decrease of Nδ1H one-bond coupling vs commonly reported serine proteases” value is reported as “about 38 Hz”. In experiment [7] (first tautomer), the “One bond JNH of Nδ1H H51, 19.93 ppm signal” value was 52+/− 2 Hz and 52 Hz; the “One bond JNH of Nε2H H51” value was 90+/− 2 Hz and 90 Hz. Besides, the “Nδ1H of H51, second tautomer, 1H chemical shift” value in experiment [7] (most persistent signal, pH 8.5 Tris) is 19.77 ppm and 19.772 ppm. In addition, the “pH dependence of low field 1H chemical shift” value in experiment [7] (pH 5.5 to 8.5) was “None of the signals in this region shift between pH 5.5 and 8.5”. In experiment [7] (pH 6.0 MES, not always observed), the “Nδ1H of H51, first tautomer, 1H chemical shift” value was 19.93 ppm and 19.933 ppm. Moreover, in experiment [7] (second tautomer), the “One bond JNH of Nδ1H H51, 19.77 ppm signal” value was 52+/− 2 Hz and 52 Hz. Besides, the “Affinity / complex formation with H51N mutant” value in experiment [8] was “saturation of the protease and inhibitor complex could not be reached”.
On to `CCCC[C@H](NC(=O)c1ccccc1)C(=O)N[C@@H](CCCCN)C(=O)N[C@@H](CCCNC(=N)N)C(=O)NC(CCCNC(=N)N)C(=O)C(F)(F)F` (stereo partly drawn) [IV, N-((9S,12S,15S)-1-amino-12-(4-aminobutyl)-9-(3-guanidinopropyl)-1-imino-8,11,14-trioxo-6-(2,2,2-trifluoroacetyl)-2,7,10,13-tetraazanonadecan-15-yl)benzamide] (Bz-[Nle]KR[ξR]-CF3), for which inhibition in experiment [1] was half-maximal at 11 µM (IC50).
Regarding “Bz-Nle-Lys-Arg-Arg-CF3-ketone [IVa, isomer IVa of (IV), free 19F at − 82.82 ppm]”, the “Binding to NS2B:NS3pro / affinity in words (NMR)” value in experiment [2] was “the signal of only one isomer (IVa) re-appeared”.
